The source of these data is US11918572B2, “Pharmaceutical compositions for treating pain” (REBEL MEDICINE INC, priority 2022, dated 2024).

A short description of series [1]: controlled release of drug from the formulation (dialysis bag in PBS sink, UV 272 nm). The format is physicochemical. Here is the method: (§1) The controlled release of the formulation was evaluated where 0.5 mL of the formulation was placed into a dialysis bag (10 kDa) and submerged in 50 mL sink of phosphate buffered saline (1×; pH 7.4). The samples were placed into a rotating incubator (1 Hz) at 37° C. At designated timepoints, 2 mL of saline was removed and analyzed using ultraviolet visible spectrophotometry (272 nm). The entire sink medium was replaced at each timepoint until drug no longer eluted out of the system.
as §1, with “The release of bupivacaine is shown in a formulation including MCT oil and glycerol monostearate as a structuring agent with and without the presence of an anion to increase hydrophobicity. […] The controlled” for “The controlled”, “buffered saline (lx; pH 7.4).” for “buffered saline (1×; pH 7.4).”

Series [2] in a line: solubility of ropivacaine forms in lipophilic oils. The format is physicochemical.
Series [3] can be described thus: max solubility of bupivacaine in oil (37° C. overnight, centrifuge, UV 272 nm).
Description: The solubility of bupivacaine in a blend of MCT oil and castor oil was studied. […] The max solubility of the oil blends was determined by adding 300 mg of bupivacaine free base into 3 mL of an MCT: castor oil mixture. […] After rotating, samples were spun in a centrifuge at 2000×g for 5 minutes. Next, 30 uL of sample supernatant was taken and dissolved to 1470 uL of ethanol and analyzed using ultraviolet visible spectrophotometry (272 nm).

`CCCCC(CC)COC(=O)CC(C(=O)OCC(CC)CCCC)S(=O)(=O)O.CCCCN1CCCCC1C(=O)Nc1c(C)cccc1C` (stereo not drawn) [bupivacaine with docusate, bupivacaine docusate]: the “release of bupivacaine with and without an anion” value in series [1] (FIG. 13, MCT oil and glycerol monostearate, PBS pH 7.4, 37° C.) was “prolonged”.
Turning to `CCCCC(CC)COC(=O)CC(C(=O)OCC(CC)CCCC)S(=O)(=O)O.CCCN1CCCCC1C(=O)Nc1c(C)cccc1C` (stereo not drawn) [ropivacaine docusate], the “solubility in lipophilic oils such as medium-chain triglycerides” value in series [2] is given as “suitable solubility”.
Same read-out and setting: to `CCCN1CCCC[C@H]1C(=O)Nc1c(C)cccc1C` [ropivacaine] belongs “poor solubility”.
In the case of `CCCCN1CCCCC1C(=O)Nc1c(C)cccc1C` (stereo not drawn) [bupivacaine], the “drug release with specific blends of oil” value in series [1] (MCT oil:castor oil blends) is “slows”. Besides, the “drug solubility in castor oil versus MCT” value in series [3] was “higher drug solubility in castor oil than MCT”. Moreover, the “solubility of bupivacaine (drug loading) in blends of MCT oil and castor oil” value in series [3] (FIG. 11, 37° C. overnight) is recorded as “drug loading increases with specific blends of oil”.
